From patent publication US8715638B2, “Ethenyl-substituted pyridine and pyrimidine derivatives and their use in treating viral infections” (Merck Sharp & Dohme Corp., priority 2008, dated 2014)

Test system: HCV replicon cells
Experiment: Cell-based HCV Replicon Assay
Details: Hepatitis C virus, 72 h; HCV replicon RNA level by real time PCR (Taqman), cells harvested on day 3; EC90 = concentration to achieve ΔCT=3.2 over baseline
Protocol: Assays Cell-based HCV Replicon Assay
To measure cell-based anti-HCV activity of the compounds of the present invention, replicon cells were seeded at 5000 cells/well in 96-well collagen I-coated Nunc plates in the presence of the compound of the invention. […] The final concentration of DMSO was 0.5%, fetal bovine serum was 10%, in the assay media. […] The replicon RNA level was measured using real time PCR (Taqman assay). The amplicon was located in 5B. […] GAPDH RNA was used as endogenous control and was amplified in the same reaction as NS5B (multiplex PCR) using primers and VIC-labeled probe recommended by the manufacturer (PE Applied Biosystem). The real-time RT-PCR reactions were run on ABI PRISM 7900HT Sequence Detection System using the following program: 48° C. for 30 min, 95° C. for 10 min, 40 cycles of 95° C. for 15 sec, 60° C. for 1 min. The ΔCT values (CT5B-CTGAPDH) were plotted against the concentration of test compound and fitted to the sigmoid dose-response model using GraphPad PRISM software. EC50 was defined as the concentration of inhibitor necessary to achieve ΔCT=1 over the projected baseline; EC90 the concentration necessary to achieve ΔCT=3.2 over the baseline. Alternatively, to quantitate the absolute amount of replicon RNA, a standard curve was established by including serially diluted T7 transcripts of replicon RNA in the Taqman assay. All Taqman reagents were from PE Applied Biosystems. Such an assay procedure was described in detail in e.g. Malcolm et al., Antimicrobial Agents and Chemotherapy 50: 1013-1020 (2006).

SMILES | EC90
Cc1ccccc1/C=C/c1c(Cl)nc(N)nc1N[C@@H]1C[C@H](CO)[C@@H](O)[C@H]1O [compound 13] | > 5 µM
Nc1nc(Cl)c(/C=C/c2cccc(Oc3ccccc3)c2)c(N[C@@H]2C[C@H](CO)[C@@H](O)[C@H]2O)n1 [compound 10] | ≤ 5 µM
Nc1nc(Cl)c(/C=C/c2ccc(F)c(F)c2)c(N[C@@H]2C[C@H](CO)[C@@H](O)[C@H]2O)n1 [compound 6] | ≤ 5 µM
CSc1nc(N)nc(N[C@@H]2C[C@H](CO)[C@@H](O)[C@H]2O)c1/C=C/c1ccccc1 [compound 16] | > 5 µM
Nc1nc(Cl)c(/C=C/c2ccccc2F)c(N[C@@H]2C[C@H](CO)[C@@H](O)C2)n1 [compound 15] | > 5 µM
Nc1nc(Cl)c(/C=C/c2ccccc2Cl)c(N[C@H]2C=C[C@@H](CO)C2)n1 [compound 17] | > 5 µM
Nc1nc(Cl)c(/C=C/c2cccc(F)c2F)c(N[C@@H]2C[C@H](CO)[C@@H](O)[C@H]2O)n1 [compound 9] | ≤ 5 µM
Nc1nc(Cl)c(/C=C/c2cc(F)cc(F)c2)c(N[C@@H]2C[C@H](CO)[C@@H](O)[C@H]2O)n1 [compound 4] | ≤ 5 µM
